What is called IC50 is the concentration that gives 50% inhibition. In general, Km refers to the substrate concentration at which the rate is half of its maximum.

Read-outs that look alike come from different tables or passages of the source.

The target of test [1] is T1, AChE (Electrophorus electricus, UniProt O42275). Briefly: biochemical.
The next test concerns the target T2, ovine COX-1 (Ovis aries, UniProt P05979).
T2 construct: purchased 560131
T2 sequence (P05979 25-600): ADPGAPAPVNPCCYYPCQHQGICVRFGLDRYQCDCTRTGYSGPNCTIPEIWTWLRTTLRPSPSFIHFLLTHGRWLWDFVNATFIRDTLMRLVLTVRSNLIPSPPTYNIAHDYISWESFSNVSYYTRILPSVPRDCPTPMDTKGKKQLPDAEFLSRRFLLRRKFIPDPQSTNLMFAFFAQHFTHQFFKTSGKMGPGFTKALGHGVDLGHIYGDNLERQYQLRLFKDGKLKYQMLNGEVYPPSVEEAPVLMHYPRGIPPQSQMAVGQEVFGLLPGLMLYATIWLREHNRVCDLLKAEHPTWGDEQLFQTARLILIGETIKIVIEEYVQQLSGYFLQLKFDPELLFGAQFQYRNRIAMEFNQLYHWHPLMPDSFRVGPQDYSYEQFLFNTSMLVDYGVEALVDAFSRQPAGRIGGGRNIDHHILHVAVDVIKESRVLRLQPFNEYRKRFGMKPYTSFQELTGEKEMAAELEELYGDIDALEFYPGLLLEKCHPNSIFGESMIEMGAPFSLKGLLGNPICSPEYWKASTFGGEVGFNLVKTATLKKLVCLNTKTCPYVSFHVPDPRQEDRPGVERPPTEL
Briefly: COX Inhibitor Screening Assay kit, COX-1. In kind it is biochemical.

For a further test, the target named is PAS of EeAChE (Electrophorus electricus, UniProt O42275). Briefly: Propidium iodide displacement from the PAS of AChE (fluorescence). The following applies: EeAChE 7 µM, propidium iodide 8 µM; for % Displacement of propidium iodide 290 µM: compound 290 µM; for % Displacement of propidium iodide 340 µM: compound 340 µM. In kind it is binding.
Chain of PAS of EeAChE (O42275 24-633): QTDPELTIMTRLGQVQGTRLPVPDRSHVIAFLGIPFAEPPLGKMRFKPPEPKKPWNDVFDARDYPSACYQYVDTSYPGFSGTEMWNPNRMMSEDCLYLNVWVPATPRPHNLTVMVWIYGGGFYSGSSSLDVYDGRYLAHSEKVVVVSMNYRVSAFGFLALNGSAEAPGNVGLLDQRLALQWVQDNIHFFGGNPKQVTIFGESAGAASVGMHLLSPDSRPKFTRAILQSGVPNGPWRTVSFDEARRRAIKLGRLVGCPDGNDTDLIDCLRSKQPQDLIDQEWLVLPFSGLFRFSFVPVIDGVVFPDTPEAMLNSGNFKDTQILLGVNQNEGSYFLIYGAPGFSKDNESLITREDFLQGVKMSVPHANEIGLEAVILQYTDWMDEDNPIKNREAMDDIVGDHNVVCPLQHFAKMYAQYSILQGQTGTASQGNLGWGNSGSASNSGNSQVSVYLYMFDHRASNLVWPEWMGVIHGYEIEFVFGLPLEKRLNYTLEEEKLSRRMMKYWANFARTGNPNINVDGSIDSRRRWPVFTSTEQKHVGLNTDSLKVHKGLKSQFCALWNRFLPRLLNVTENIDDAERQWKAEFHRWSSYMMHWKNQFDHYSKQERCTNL
The next test has as its target T3, human recombinant COX-2 (Homo sapiens, UniProt P35354).
T3 construct: purchased 560131
T3 sequence (P35354 18-604): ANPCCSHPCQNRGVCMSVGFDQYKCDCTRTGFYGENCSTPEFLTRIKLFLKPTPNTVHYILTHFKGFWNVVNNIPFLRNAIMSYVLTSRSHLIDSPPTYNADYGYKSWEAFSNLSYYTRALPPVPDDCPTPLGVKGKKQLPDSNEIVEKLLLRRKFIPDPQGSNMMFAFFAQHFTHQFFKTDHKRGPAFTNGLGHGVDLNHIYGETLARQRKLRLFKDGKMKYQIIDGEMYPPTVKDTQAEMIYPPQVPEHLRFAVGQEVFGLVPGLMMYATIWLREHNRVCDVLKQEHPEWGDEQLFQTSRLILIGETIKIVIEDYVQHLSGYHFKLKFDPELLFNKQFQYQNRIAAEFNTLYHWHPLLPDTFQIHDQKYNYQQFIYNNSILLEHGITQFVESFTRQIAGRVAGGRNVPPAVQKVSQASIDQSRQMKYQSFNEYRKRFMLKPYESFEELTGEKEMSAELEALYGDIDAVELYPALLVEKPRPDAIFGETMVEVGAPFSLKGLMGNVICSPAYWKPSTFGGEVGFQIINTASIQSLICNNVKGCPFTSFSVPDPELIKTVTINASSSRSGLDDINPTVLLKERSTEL
Briefly: biochemical. In kind it is biochemical. Particulars: for IC50: average of 3 independent runs, read-out: COX-2 IC50 (µM)±SE.

A further test relates to Tc-AChE. Nature of the test: Kinetic characterisation of AChE inhibition (Lineweaver-Burk). The class given is biochemical, Torpedo californica.
For test [2], the target named is T1, AChE. Particulars: read-out: AChE IC50 (µM)±SE; average of 3 independent runs.
Where [3] appears, read: selectivity index, COX-1 IC50 / COX-2 IC50.
Where [4] appears, read: read-out: COX-1 IC50 (µM)±SE, average of 3 independent runs.

T1 sequence (O42275 24-633): as the sequence (O42275 24-633) above
Protocol for PAS of EeAChE: The ability of compounds to competitively displace propidium iodide was evaluated by a fluorescence method[43]. […] Donepezil was used as reference compound. The blank contained propidium iodide of the same concentration in 1 mM Tris-HCl buffer pH 8.0. The measurements were carried out in triplicate on a microplate reader Perkin Elmer VictorX2 (Perkin Elmer, Singapur).
Protocol for Tc-AChE: The rate of enzyme activity was measured at eight different concentrations of substrate acetylthiocholine iodide (ATC).
Data analysis was carried out with SigmaPlot v10.0.

Turning to `Cc1ccc(C(C)C)cc1O` [Carvacrol, reference compound], at AChE [1], the midpoint of inhibition, the IC50, lay at 45 ± 0.031 µM.

Turning to `CC1=CCC[C@@]2(C)CC[C@@H]3C[C@]12OC3(C)C` [Compound 3, α-agarofuran], the results for the IC50 at ovine COX-1, on human recombinant COX-2 and on AChE [1] were 11.36 ± 0.035 µM, 0.17 ± 0.002 µM and 26 ± 0.012 µM, respectively. Also, the “% Displacement of propidium iodide 290 µM” value on PAS of EeAChE was 12.2 ± 0.2%. The “% Displacement of propidium iodide 340 µM” value at PAS of EeAChE is 15.8 ± 0.5%. In addition, the “SI(COX-1/COX-2)” value at human recombinant COX-2 stood at 66.82.

Consider `CC1(C)OC23CC1CCC2(C)CCC(O)C3(C)O` (stereo not drawn) [Compound 4, 3α,4α-dihydroxydihydro-β-agarofuran], for which the IC50 against ovine COX-1 was 14.21 ± 0.035 µM. In the test on Tc-AChE (Lineweaver-Burk plots, eight concentrations of substrate ATC), the “Mode of AChE inhibition” value is reported as “non-competitive inhibitor”. In addition, the Km in the test on Tc-AChE (unchanged at increasing concentrations of the inhibitor, substrate ATC) is 110 µM. Further, on PAS of EeAChE, the “% Displacement of propidium iodide 290 µM” value is recorded as 13.9 ± 0.3% and the “% Displacement of propidium iodide 340 µM” value stood at 17.6 ± 0.5%. Moreover, on human recombinant COX-2, the “SI(COX-1/COX-2)” value is reported as 37.39 and the IC50 came to 0.38 ± 0.007 µM. The same compound registered an IC50 at AChE [1] of 17 ± 0.016 µM.

`CC(=O)OC1CCC2(C)CCC3CC2(OC3(C)C)C1(C)O` (stereo not drawn) [Compound 5, 3α-acetoxy-4α-hydroxydhydro-β-agarofuran]: the IC50 at ovine COX-1 turned out to be 13.08 ± 0.02 µM; at human recombinant COX-2, 0.4 ± 0.0014 µM; against AChE [1] it was 43 ± 0.015 µM. Further, the “SI(COX-1/COX-2)” value on human recombinant COX-2 was 32.7.

For `CC1(C)OC23CC1CCC2(C)CCC(OC(=O)c1ccco1)C3CO` (stereo not drawn) [Compound 6, 3α-furoyloxy-15-hydroxydihydro-β-agarofuran], the IC50 amounted to 12.69 ± 0.035 µM against ovine COX-1, 0.13 ± 0.003 µM on human recombinant COX-2 and 32 ± 0.006 µM against AChE [1]. For the same compound, the “SI(COX-1/COX-2)” value at human recombinant COX-2 was found to be 97.61.

Take `CC1(C)OC23CC1CCC2(C)CCC(OC(=O)c1ccccc1)C3CO` (stereo not drawn) [Compound 7]: the IC50 against ovine COX-1 is 11.98 ± 0.042 µM; on human recombinant COX-2 it was 0.21 ± 0.008 µM. Besides, the “SI(COX-1/COX-2)” value at human recombinant COX-2 (setting [3]) was determined as 57.05.

On to `CC(=O)O[C@H]1CC[C@](C)(O)[C@]23OC(C)(C)[C@H](C[C@H](OC(=O)c4ccoc4)[C@]12C)[C@H]3OC(=O)c1ccoc1` [Compound 8, 1α-Acetoxy-6β,9β-difuroyloxy-4β-hydroxydihydro-β-agarofuran], for which the IC50 on ovine COX-1 (setting [4]) stood at 10.59 ± 0.02 µM; on human recombinant COX-2 it was 0.04 ± 0.007 µM; at AChE [2] it was 738 ± 0.007 µM. Besides, on human recombinant COX-2, the “SI(COX-1/COX-2)” value is given as 264.75.

For the compound `CC(=O)OC[C@@]12[C@@H](OC(C)=O)CC[C@@H](C)[C@]13OC(C)(C)[C@H](C[C@@H]2OC(=O)c1ccccc1)[C@H]3OC(C)=O` [Compound 9, 1α,6β,14-triacetoxy-9β-benzyloxydihydro-β-agarofuran], the IC50 is 8.69 ± 0.03 µM on ovine COX-1, 0.07 ± 0.004 µM at human recombinant COX-2 and 695 ± 0.001 µM against AChE [1]. Also, the “SI(COX-1/COX-2)” value at human recombinant COX-2 was 124.14.

As for `CC(=O)O[C@@H]1[C@@H]2[C@@H](OC(C)=O)[C@]3(OC2(C)C)[C@H](C)CC[C@H](O)[C@@]3(C)[C@H]1OC(=O)c1ccoc1` [Compound 10, 6β,8α-diacetoxy-9β-furoyloxy-1α-hydroxydihydro-β-agarofuran], the figures for the IC50 on ovine COX-1 (setting [4]), at human recombinant COX-2 and at AChE [2] were 13.74 ± 0.1 µM, 0.29 ± 0.0003 µM and 740 ± 0.045 µM, respectively. Also, at human recombinant COX-2, the “SI(COX-1/COX-2)” value came out at 47.37.

As to `CC(=O)O[C@@H]1[C@H](OC(=O)c2ccccc2)[C@@]2(C)[C@@H](OC(=O)c3ccccc3)C[C@@H]3[C@@H](OC(C)=O)[C@]2(OC3(C)C)[C@@](C)(O)[C@H]1OC(C)=O` [Compound 11], the IC50 on ovine COX-1 is 13.08 ± 0.02 µM; on human recombinant COX-2, 0.09 ± 0.005 µM; against AChE [1], 30 ± 0.06 µM. Besides, the “% Displacement of propidium iodide 290 µM” value on PAS of EeAChE is 12.1 ± 0.7%. Moreover, at PAS of EeAChE, the “% Displacement of propidium iodide 340 µM” value was 13.4 ± 0.2%. In addition, the “SI(COX-1/COX-2)” value on human recombinant COX-2 is recorded as 145.33.

As to `CC(=O)OC[C@]12[C@@H](OC(=O)c3ccccc3)[C@H](OC(C)=O)[C@@H]3[C@@H](OC(=O)c4ccccc4)[C@]1(OC3(C)C)[C@@](C)(O)[C@H](OC(C)=O)[C@H](OC(C)=O)[C@@H]2OC(C)=O` [Compound 12, 1α,2α,3α,8α,14-pentaacetoxy-6β,9β-dibenzyloxy-4β-hydroxidihydro-β-agarofuran], the IC50 at ovine COX-1 came out at 14.2 ± 0.2 µM; on human recombinant COX-2, 0.84 ± 0.012 µM. Moreover, the “SI(COX-1/COX-2)” value on human recombinant COX-2 (setting [3]) worked out at 16.92.

As for `CC(=O)O[C@@H]1[C@H]2[C@@H](O)[C@H](OC(=O)c3ccccc3)[C@]3(C)[C@@H](O)CC[C@@H](C)[C@@]13OC2(C)C` [Compound 13], the IC50 stood at 11.36 ± 0.035 µM on ovine COX-1, 0.11 ± 0.007 µM at human recombinant COX-2 and 500 ± 0.03 µM against AChE [1]. Further, the “SI(COX-1/COX-2)” value on human recombinant COX-2 was 103.27.

(Values after paper PMC9278454, “Dyhidro-β-agarofurans natural and synthetic as acetylcholinesterase and COX inhibitors: interaction with the peripheral anionic site (AChE-PAS), and anti-inflammatory potentials” (Journal of Enzyme Inhibition and Medicinal Chemistry, 2022).)
